For assay [1], the system named is MDA-MB-231. Briefly: Cytotoxicity against human MDA-MB-231 cells assessed as inhibition of cell proliferation by MTT colorimetric assay. Format: functional, cell-based. In general terms: Tetrazolium assays rely on reduction of a dye to a coloured formazan, in cell work by metabolically active cells.
The next assay relates to A549. In words: Cytotoxicity against human A549 cells assessed as inhibition of cell proliferation by MTT colorimetric assay. The class given is functional, cell-based.
The test system of another assay is HSC-2. In words: Cytotoxicity against human HSC-2 cells assessed as inhibition of cell proliferation by MTT colorimetric assay. Format: functional, cell-based.
A further assay relates to Ca9-22. In words: Cytotoxicity against human Ca9-22 cells assessed as inhibition of cell proliferation by MTT colorimetric assay. Format: functional, cell-based.
The subject of assay [2] is MCF7. In words: Antiproliferative activity against human MCF7 cells assessed as inhibition of cell proliferation. Format: functional, cell-based.
For a further assay, the system named is HCT-116. Briefly: Antiproliferative activity against human HCT-116 cells assessed as inhibition of cell proliferation. Format: functional, cell-based.
Assay [3] relates to MCF7. In words: Inhibition of cell growth in human MCF7 cells at 6 ug/ml incubated for 96 hrs. Format: functional.
For assay [4], the system named is MDA-MB-231. In words: Inhibition of cell growth in human MDA-MB-231 cells at 6 ug/ml incubated for 96 hrs. The class given is functional.
For another assay, the system named is HeLa S3. In words: Cytotoxicity against human HeLa S3 cells assessed as cell growth inhibition incubated for 48 hrs by MTT assay. The class given is functional, cell-based. To be noted: HeLa S3, 48 h.
The next assay has as its system P388. Briefly: Cytotoxicity against mouse P388 cells. Format: functional, cell-based. The conditions noted are these: Mus musculus, P388; read-out: IC50.
Another assay concerns L1210. In words: Cytotoxicity against mouse L1210 cells. The class given is functional, cell-based.
Assay [5] has as its system MCF7. Briefly: Antiproliferative activity against human MCF7 cells assessed as inhibition of cell growth incubated for 48 hrs. To be noted: MCF7, 48 h, pooled result: one value given for 9 cell lines, strains, targets or settings. The class given is functional, cell-based.
The subject of the next assay is DU-145. Briefly: Cytotoxicity against human DU-145 cells assessed as reduction in cell viability incubated for 48 hrs by MTS assay. Format: functional, cell-based. The conditions noted are these: DU-145, time 48 hrs.
In another assay the test system is JIMT-1. In words: Cytotoxicity against human JIMT-1 cells assessed as reduction in cell viability incubated for 48 hrs by MTS assay. The class given is functional, cell-based. To be noted: JIMT-1, time 48 hrs.
The test system of the next assay is MIA PaCa-2. Briefly: Cytotoxicity against human MIA PaCa-2 cells assessed as reduction in cell viability incubated for 48 hrs by MTS assay. The class given is functional, cell-based. The conditions noted are these: MIA PaCa-2, time 48 hrs.
In another assay the test system is BT-474. In words: Cytotoxicity against human BT-474 cells assessed as reduction in cell viability incubated for 48 hrs by MTS assay. The class given is functional, cell-based. The conditions noted are these: BT-474, time 48 hrs.
The test system of the next assay is KB. In words: Cytotoxicity against human KB cells by MTT assay. Format: functional, cell-based.
The subject of a further assay is K562. Briefly: Cytotoxicity against human K562 cells by MTT assay. The class given is functional, cell-based.
For assay [6], the system named is MCF7. Briefly: Antiproliferative activity against human MCF7 cells assessed as cell growth inhibition by measuring minimum inhibitory concentration incubated for 48 hrs by MTT assay. The class given is functional.
A further assay concerns BV-173. Briefly: Cytotoxicity against human BV-173 cells assessed as inhibition of cell growth incubated for 72 hrs by MTT assay. The class given is functional, cell-based. To be noted: BV-173, 72 h.
Assay [7] is described as follows: Cytotoxicity against human SKW-3 cells assessed as inhibition of cell growth incubated for 72 hrs by MTT assay. Format: functional, cell-based. The conditions noted are these: SKW3, 72 h.
The subject of another assay is HL-60. In words: Cytotoxicity against human HL-60 cells assessed as inhibition of cell growth incubated for 72 hrs by MTT assay. Format: functional, cell-based. The conditions noted are these: HL-60, 72 h.
Assay [8] in a line: Cytotoxicity against human JMSU-1 cells assessed as inhibition of cell growth incubated for 72 hrs by MTT assay. To be noted: JMSU-1, 72 h. Format: functional, cell-based.
In the next assay the test system is C6. Briefly: Antimitotic activity against rat C6 cells assessed as inhibition of cell proliferation by measuring inhibitory dose by [3H]-thymidine incorporation based […]. The class given is functional. To be noted: read-out: ID50 (the source's name). For orientation: Uptake of a labelled nucleoside into DNA is a usual measure of proliferation.

Converted amounts (≈) assume the structure as drawn.

What is called inhibition is how much of the control response was suppressed. The term CC50 denotes the concentration at which the toxic effect on the cells reaches its halfway point. The MIC is the least concentration at which growth counts as inhibited.

Turning to `C=CCCCC[C@@H](C)O[C@@H]1O[C@@H](C)[C@H](OC(=O)C[C@H]2C[C@@H]3O[C@]4(C)CC[C@H]5[C@H](C)CC[C@@H]([C@H]2C)[C@@]35OO4)C[C@H]1O`, the IC50 with MDA-MB-231 [1], in the assay with A549, in the assay with HSC-2 and in the assay on Ca9-22 was 15.1 µM throughout.

In the case of `CCC/C=C\C[C@@H](O[C@H](/C=C/[C@@H](C/C=C\CCCC(=O)OC)OC[C@H]1O[C@@H](OC[C@H](O)CO)[C@H](O)[C@@H](O)[C@@H]1O)[C@H](O)C/C=C\CCCCC)[C@H](O)/C=C/[C@@H](O)CCCCC(=O)OC`, the IC50 in the assay on MCF7 [2] and in the assay with HCT-116 was 3 nM each time.

Take `CC/C=C\C/C=C\C/C=C\CCCCCCCC(=O)OC[C@@H](CO[C@@H]1O[C@H](CO)[C@H](O)[C@H](O)[C@H]1O)OC(=O)CCCCCCC/C=C\C/C=C\C/C=C\CC`: the inhibition at 6 µg/mL in the assay on MCF7 [3] and with MDA-MB-231 [4] was 90% each time.

`C/C=C\C/C=C\C/C=C\C/C=C\C/C=C\CCCC(=O)OCC(CO[C@H]1O[C@H](CS(=O)(=O)O)[C@@H](O)[C@H](O)[C@H]1O)OC(=O)CCCCCCCCCCCCCCC` (some centres undefined): the IC50 in the assay on HeLa S3 was 80 µM.

In the case of `CO[C@@H]1[C@H](O[C@@H]2CO[C@@H](O[C@@H]3[C@@H](O)[C@H](O)CO[C@H]3N3C(=O)/C(=C(O)/C=C/C=C/C=C/C=C/C=C(Cl)/C=C(\C)Cl)C(=O)[C@@H]3CC(N)=O)[C@@H](O)[C@@H]2O)O[C@H](C)[C@H]1O` [AURANTOSIDE A], the IC50 in the assay on P388 is 1.8 µg/mL (≈ 2.2 µM); in the assay with L1210, 3.4 µg/mL (≈ 4.16 µM).

Take `CCCCCCCCCCCCCCCCOC[C@H](CO[C@@H]1O[C@H](CO)[C@@H](O)[C@H](O)[C@H]1N)OC`: in the assay on MCF7 [5], the IC50 was 4.1 µM. Also, the CC50 with DU-145 was found to be 10 µM; with JIMT-1, 9 µM; in the assay with MIA PaCa-2 it was 9 µM; in the assay on BT-474 it was 8 µM.

Consider `C/C=C(\C)[C@H](O)[C@H](C)/C=C/C=C/C/C(C)=C/Cc1nc(OC)c(OC)c(OC2O[C@@H](C)[C@H](O)[C@@H](O)[C@H]2O)c1C` (some centres undefined), for which the IC50 in the assay with KB stood at 4.5 µg/mL (≈ 8.22 µM); with K562 it was 2.9 µg/mL (≈ 5.29 µM).

As to `CCCCCCCCCC[C@@H](CC(=O)O)OC(=O)C[C@H](CCCCCCCCCC)O[C@@H]1O[C@@H](C)[C@H](O)[C@@H](O)[C@H]1O`, the MIC with MCF7 [6] turned out to be 6.25 µg/mL (≈ 10.6 µM). Besides, the IC50 in the assay with BV-173 was determined as 50 µM; in [7] it was 54 µM; in the assay with HL-60 it was 67 µM; in assay [8], 60 µM.

Regarding `CO[C@@H]1O[C@H](CO)[C@@H](O[C@@H]2O[C@H](CO)[C@H](OS(=O)(=O)O)[C@H](O)[C@H]2O)[C@H](O[C@@H]2O[C@@H](C)[C@@H](O)[C@@H](O)[C@@H]2O)[C@H]1O`, in the assay on C6, the IC50 came out at 79 µM.

The record behind these values is ChEMBL document CHEMBL5260828, “Amphiphilic glycoconjugates as potential anti-cancer chemotherapeutics” (Eur J Med Chem, 2018).
